# Values quoted from earlier work, collected in patent publication US7842686B2, “CGRP receptor antagonists” (Vertex Pharmaceuticals Incorporated, priority 2006, dated 2010).
# No end group written: not given here.
# Assays:
# facial blood flow [1] = settings: rat, trigeminal ganglion stimulation
# middle meningeal artery = settings: rats, electrical stimulation of the dura mater, prior administration
# [2] = tested on: acute attacks of migraine; settings: clinical trials (Olesen et al. 2004)
# facial blood flow [3] = settings: marmoset, electrical stimulation of the trigeminal ganglion
Compound,effect on increase of facial blood flow (facial blood flow [1]),effect on increase of middle meningeal artery diameter (middle meningeal artery),efficacy in acute attacks of migraine [2],effect on increase in facial blood flow (facial blood flow [3])
"CGRP(8-37): a peptide CGRP antagonist (VTHRLAGLLSRSGGVVKNNFVPTNVGSKAF-NH2; ends and bridges not checked; UniProt P06881 90-119, looked up, fragment)",inhibited,blocked,,
NCCCC[C@H](NC(=O)[C@@H](Cc1cc(Br)c(O)c(Br)c1)NC(=O)N1CCC(N2Cc3ccccc3NC2=O)CC1)C(=O)N1CCN(c2ccncc2)CC1 [BIBN4096BS],,,effective in treating acute attacks of migraine,could be blocked
